Measured values as given in patent US8729048B2, “Methods and materials for assessing responsiveness to PARP inhibitors and platinating agents” (Mayo Foundation for Medical Education and Research, priority 2011, dated 2014).
“Also recorded” adds a separate entry of the source.

How the values were obtained:
Assay type in all cases: cell-based
[1] = test system: NHEJ activity in PEO1 cells; experiment: NHEJ end-joining reporter assay, PEO1; details: 72 hours
From the text: FIG. 3. Error-prone NHEJ activity is enhanced by PARP inhibitors in PEO1 cells. (A) Schematic of the in vivo NHEJ assay. Pem1-Ad2-EGFP is an EGFP-containing vector with a 2.4 kb intron (Pem1) and one exon (Ad2) inserted into the EGFP cassette. Pem1-Ad2-EGFP was cut with either HindIII or I-SceI to produce linearized substrate with compatible overhangs or incompatible inverted overhangs, respectively. Successfully recircularized plasmid will produce intact EGFP, which can be assayed via flow cytometry. Any residual uncut plasmid, due to the insertion of the Ad2 exon within the EGFP open reading frame, will be EGFP negative. A pCherry plasmid was co-transfected with substrate to correct for transfection efficiency. (B) and (C) Quantitation of NHEJ activity in PEO1 and PEO4 cells transfected with HindIII substrate (B) or I-SceI substrate (C) and exposed to ABT-888 for 72 hours. Each data point represents the mean±SEM from 3 independent experiments.
The end-joining reporter plasmid pEGFP-Pem1-Ad2 described elsewhere (Wang et al., Nucleic Acids Res., 34:6170-6182 (2006); Seluanov et al., Proc. Natl. Acad. Sci. USA, 101:7624-7629 (2004); and Fattah et al., PLoS Genet., 6:e1000855 (2010); see also (FIG. 3A)) was provided by E. Hendrickson (University of Minnesota, Minneapolis, Minn.) and was digested with either HindIII or I-SceI for 12 hours, and gel purified using a Qiagen gel extraction kit. […]

[2] = test system: DNA-PKcs-reconstituted M059J cells; experiment: Clonogenic assay, M059J+DNA-PKcs; details: BRCA1 shRNA
Method: (§1) FIG. 6. […] (A) BRCA1-deficient HCC1937 and BRCA1-reconstituted HCC1937/BRCA1 cells were continuously exposed to ABT-888 in the presence or absence of 125 nM DNA-PKi and assayed for clonogenic survival. Inset, Western blots of cell lysates from HCC1937 and HCC1937/BRCA1. (B) Western blots of M059J and reconstituted M059J+DNA-PKcs lines showing the restoration of DNA-PK expression and the shRNA-mediated knockdown of BRCA1. (C) Clonogenic survival of shRNA transfected M059J/M059J+DNA-PKcs lines treated with ABT-888 for 72 hours. (D) Clonogenic survival of ATM-deficient GM16666 or ATM-reconstituted GM16667 fibroblasts. Cells were exposed to ABT-888 for 48 hours in the presence or absence of 250 nM DNA-PKi, washed, and allowed to form colonies. Inset, Western blots of lysates from GM16666 and GM16667 fibroblasts. […] Results are representative of 3 independent experiments.
(§2) All siRNA oligonucleotides were purchased from Ambion, Inc. (Austin, Tex.). Sequences, with references, are provided below. PEO1 and PEO4 cells were transfected with 150 picomoles of siRNA using the HiPerfect lipid transfection reagent (Qiagen; Valencia, Calif.). […]
(§3) Colony formation assays were performed on siRNA-transfected PEO1 and PEO4 cells 48 hours after the second transfection. […] Colonies containing ≧50 cells were scored manually. […]

[3] = test system: parental M059J cells lacking DNA-PKcs; experiment: Clonogenic assay, M059J; details: BRCA1 shRNA
Method: as §1, §2, §3

With `C[C@]1(c2nc3c(C(N)=O)cccc3[nH]2)CCCN1` [ABT-888] the “end-joining of I-SceI-linearized substrate” value ([1]; PEO1 cells compared to PEO4 cells) was “significantly increased; also recorded: pronounced increase in end-joining”, the “end-joining of HindIII-linearized substrate” value ([1]; PEO1 cells) was “little effect; also recorded: small increase in end-joining” and the “clonogenic sensitivity to ABT-888 after BRCA1 knockdown” value [2] was “sensitized”. The “clonogenic sensitivity to ABT-888 after BRCA1 knockdown” value [3] was “not sensitized”.
